Each structure is given as a SMILES string.

For the test, the system named is ApoA-I mRNA. As to the kind of experiment: Quantification of ApoA-I mRNA in HepG2 cells (real-time PCR). Format: cell-based. On the set-up: key: Active: An active compound was defined as one that caused a ≧20% increase in ApoA-I mRNA at a concentration less than or equal to 100 μM. The following applies: fold induction relative to DMSO control, concentration less than or equal to 100 μM. Here is the method: In this example, ApoA-I mRNA in tissue culture cells was quantitated to measure the transcriptional up-regulation of ApoA-I when treated with a compound of the invention.
HepG2 cells (approximately 2×10^5 per well) were placed in a 24-well plate in approximately 400 μL MEM, supplemented with 0.5% (v/v) FBS, 24 h before addition of the compound of interest. At time of harvesting, the spent media was removed from the HepG2 cells and immediately placed on ice (for immediate use) or at −80° C. (for future use) in ApoA-I and albumin ELISAs. The cells remaining in the plate wells were rinsed in 200 μL PBS. PBS was carefully removed to avoid removing any loosely attached cells.
Once the PBS was removed, 85 μL cell lysis solution was added the cells in each well and incubated for 5-10 minutes at room temperature, to allow for complete cell lysis and detachment. mRNA was then prepared using the “mRNA Catcher PLUS plate” from Invitrogen, according to the protocol supplied. After the last wash, as much wash buffer as possible was aspirated without allowing the wells to dry. Elution Buffer (E3, 80 μL) was then added to each well. mRNA was then eluted by incubating the mRNA Catcher PLUS plate with Elution Buffer for 5 minutes at 68° C. and then immediately placing the plate on ice.
The eluted mRNA isolated was then used in a one-step real-time […] reaction, using components of the Ultra Sense Kit together with Applied Biosystems primer-probe mixes. Real-time PCR data was analyzed, using the Ct values, to determine the fold induction of each unknown sample, relative to the control (that is, relative to the control for each independent DMSO concentration).
An active compound was defined as one that caused a ≧20% increase in ApoA-I mRNA at a concentration less than or equal to 100 μM.
Consider `CCC(C)c1ccc(-n2c(-c3ccc(F)nc3)nc3ccccc3c2=O)cc1` (stereo not shown) [Example 51, 3-(4-sec-butylphenyl)-2-(6-fluoropyridin-3-yl)quinazolin-4(3H)-one], for which the “Effect on ApoA-I mRNA levels” value is listed as “Active”.

Take `CCC(C)c1ccc(-n2c(-c3ccc(Oc4ccccc4)nc3)nc3ccccc3c2=O)cc1` (stereo not shown) [Example 52, 3-(4-sec-butylphenyl)-2-(6-phenoxypyridin-3-yl)quinazolin-4(3H)-one]: the “Effect on ApoA-I mRNA levels” value is given as “Active”.

For `O=c1c2ccccc2nc(-c2ccc(C(F)(F)F)nc2)n1-c1ccc(Cl)cc1` [Example 53, 3-(4-chlorophenyl)-2-(6-(trifluoromethyl)pyridin-3-yl)quinazolin-4(3H)-one], the “Effect on ApoA-I mRNA levels” value is given as “Active”.

In the case of `CCC(C)c1ccc(-n2c(-c3ccc(C(F)(F)F)nc3)nc3ccccc3c2=O)cc1` (stereo not shown) [Example 54, 3-(4-sec-butylphenyl)-2-(6-(trifluoromethyl)pyridin-3-yl)quinazolin-4(3H)-one], the “Effect on ApoA-I mRNA levels” value is on record as “Active”.

Take `CCC(C)c1ccc(-n2c(-c3ccc(-c4ccccc4)nc3)nc3ccccc3c2=O)cc1` (stereo not shown) [Example 55, 3-(4-sec-butylphenyl)-2-(6-phenylpyridin-3-yl)quinazolin-4(3H)-one]: the “Effect on ApoA-I mRNA levels” value is recorded as “Active”.

For `CCC(C)c1ccc(-n2c(-c3cncc(-c4ccccc4)c3)nc3ccccc3c2=O)cc1` (stereo not shown) [Example 56, 3-(4-sec-butylphenyl)-2-(5-phenylpyridin-3-yl)quinazolin-4(3H)-one], the “Effect on ApoA-I mRNA levels” value is listed as “Active”.

Turning to `CCC(C)c1ccc(-n2c(-c3cncc(Br)c3)nc3ccccc3c2=O)cc1` (stereo not shown) [Example 57, 2-(5-bromopyridin-3-yl)-3-(4-sec-butylphenyl)quinazolin-4(3H)-one], the “Effect on ApoA-I mRNA levels” value is recorded as “Active”.

Turning to `O=c1c2ccccc2nc(-c2cncc(Br)c2)n1-c1ccc(Cl)cc1` [Example 58, 2-(5-bromopyridin-3-yl)-3-(4-chlorophenyl)quinazolin-4(3H)-one], the “Effect on ApoA-I mRNA levels” value is on record as “Active”.

For `CCC(C)c1ccc(-n2c(-c3cncc(N(CC)CC)c3)nc3ccccc3c2=O)cc1` (stereo not shown) [Example 59, 3-(4-sec-butylphenyl)-2-(5-(diethylamino)pyridin-3-yl)quinazolin-4(3H)-one], the “Effect on ApoA-I mRNA levels” value is “Active”.

`O=c1c2ccccc2nc(-c2cncc(-c3ccccc3)c2)n1-c1ccc(Cl)cc1` [Example 60, 3-(4-chlorophenyl)-2-(5-phenylpyridin-3-yl)quinazolin-4(3H)-one]: the “Effect on ApoA-I mRNA levels” value is given as “Active”.

In the case of `CCN(CC)c1cncc(-c2nc3ccccc3c(=O)n2-c2ccc(Cl)cc2)c1` [Example 61, 3-(4-chlorophenyl)-2-(5-(diethylamino)pyridin-3-yl)quinazolin-4(3H)-one], the “Effect on ApoA-I mRNA levels” value is recorded as “Active”.

Regarding `Cc1ccc(-c2nc3ccccc3c(=O)n2-c2ccc(C3CCCC3)cc2)cn1` [Example 62, 3-(4-cyclopentylphenyl)-2-(6-methylpyridin-3-yl)quinazolin-4(3H)-one], the “Effect on ApoA-I mRNA levels” value was “Active”.

With `CCC(C)c1ccc(-n2c(-c3ccc(CO)nc3)nc3ccccc3c2=O)cc1` (stereo not shown) [Example 63, 3-(4-sec-butylphenyl)-2-(6-(hydroxymethyl)pyridin-3-yl)quinazolin-4(3H)-one], the “Effect on ApoA-I mRNA levels” value is reported as “Active”.

As to `CSc1ccc(-n2c(-c3ccc(C)nc3)nc3ccccc3c2=O)cc1` [Example 64, 2-(6-methylpyridin-3-yl)-3-(4-(methylthio)phenyl)quinazolin-4(3H)-one], the “Effect on ApoA-I mRNA levels” value is “Active”.

Consider `Cc1ccc(-c2nc3ccccc3c(=O)n2-c2ccc(C(C)C)cc2)cn1` [Example 65, 3-(4-isopropylphenyl)-2-(6-methylpyridin-3-yl)quinazolin-4(3H)-one], for which the “Effect on ApoA-I mRNA levels” value is “Active”.

Take `Cc1ccc(-c2nc3ccccc3c(=O)n2-c2ccc(NS(C)(=O)=O)cc2)cn1` [Example 66, N-(4-(2-(6-methylpyridin-3-yl)-4-oxoquinazolin-3(4H)-yl)phenyl)methanesulfonamide]: the “Effect on ApoA-I mRNA levels” value was “Active”.

Consider `CCC(C)c1ccc(-n2c(-c3ccc(CN4CCOCC4)nc3)nc3ccccc3c2=O)cc1` (stereo not shown) [Example 67, 3-(4-sec-butylphenyl)-2-(6-(morpholinomethyl)pyridin-3-yl)quinazolin-4(3H)-one], for which the “Effect on ApoA-I mRNA levels” value is “Active”.

As for `Cc1ccc(-c2nc3ccccc3c(=O)n2-c2ccc(C3CC3)cc2)cn1` [Example 68, 3-(4-cyclopropylphenyl)-2-(6-methylpyridin-3-yl)quinazolin-4(3H)-one], the “Effect on ApoA-I mRNA levels” value is reported as “Active”.

`Cc1ccc(-c2nc3ccccc3c(=O)n2-c2ccc(N(C)C)cc2)cn1` [Example 69, 3-(4-(dimethylamino)phenyl)-2-(6-methylpyridin-3-yl)quinazolin-4(3H)-one]: the “Effect on ApoA-I mRNA levels” value was “Active”.

Consider `O=c1c2ccccc2nc(-c2ccc(Cl)nc2)n1-c1ccc(C2CC2)cc1` [Example 70, 2-(6-chloropyridin-3-yl)-3-(4-cyclopropylphenyl)quinazolin-4(3H)-one], for which the “Effect on ApoA-I mRNA levels” value was “Active”.

For `CCC(C)c1ccc(-n2c(-c3ccc(N4CCOCC4)nc3)nc3ccccc3c2=O)cc1` (stereo not shown) [Example 71, 3-(4-sec-butylphenyl)-2-(6-morpholinopyridin-3-yl)quinazolin-4(3H)-one], the “Effect on ApoA-I mRNA levels” value is listed as “Active”.

With `CCC(C)c1ccc(-n2c(-c3ccc4[nH]ncc4c3)nc3ccccc3c2=O)cc1` (stereo not shown) [Example 72, 3-(4-sec-butylphenyl)-2-(1H-indazol-5-yl)quinazolin-4(3H)-one], the “Effect on ApoA-I mRNA levels” value was “Active”.

`O=c1c2ccccc2nc(-c2ccc3[nH]ccc3c2)n1-c1ccc(Cl)cc1` [Example 73, 3-(4-chlorophenyl)-2-(1H-indol-5-yl)quinazolin-4(3H)-one]: the “Effect on ApoA-I mRNA levels” value is listed as “Active”.

Take `CCC(C)c1ccc(-n2c(-c3ccc4[nH]ccc4c3)nc3ccccc3c2=O)cc1` (stereo not shown) [Example 74, 3-(4-sec-butylphenyl)-2-(1H-indol-5-yl)quinazolin-4(3H)-one]: the “Effect on ApoA-I mRNA levels” value is given as “Active”.

For `CCC(C)c1ccc(-n2c(-c3ccc4nc(CO)[nH]c4c3)nc3ccccc3c2=O)cc1` (stereo not shown) [Example 75, 3-(4-sec-butylphenyl)-2-(2-(hydroxymethyl)-1H-benzo[d]imidazol-6-yl)quinazolin-4(3H)-one], the “Effect on ApoA-I mRNA levels” value is reported as “Active”.

For `O=c1c2ccccc2nc(-c2ccc3[nH]ccc3c2)n1-c1ccc(OC(F)(F)F)cc1` [Example 76, 2-(1H-indol-5-yl)-3-(4-(trifluoronnethoxy)phenyl)quinazolin-4(3H)-one], the “Effect on ApoA-I mRNA levels” value is “Active”.

As to `CC(C)c1ccc(-n2c(-c3ccc4[nH]ccc4c3)nc3ccccc3c2=O)cc1` [Example 77, 2-(1H-indol-5-yl)-3-(4-isopropylphenyl)quinazolin-4(3H)-one], the “Effect on ApoA-I mRNA levels” value is reported as “Active”.

In the case of `COc1ccc(S(=O)(=O)n2ccc3cc(-c4nc5ccccc5c(=O)n4-c4ccc(Cl)cc4)cnc32)cc1` [Example 78, 3-(4-chlorophenyl)-2-(1-(4-methoxyphenylsulfonyl)-1H-pyrrolo[2,3-b]pyridin-5-yl)quinazolin-4(3H)-one], the “Effect on ApoA-I mRNA levels” value is recorded as “Active”.

For `O=c1c2ccccc2nc(-c2cnc3c(ccn3S(=O)(=O)c3ccc(F)cc3)c2)n1-c1ccc(Cl)cc1` [Example 79, 3-(4-chlorophenyl)-2-(1-(4-fluorophenylsulfonyl)-1H-pyrrolo[2,3-b]pyridin-5-yl)quinazolin-4(3H)-one], the “Effect on ApoA-I mRNA levels” value was “Active”.

As to `CN(C)c1ccc(-n2c(-c3ccc4[nH]ccc4c3)nc3ccccc3c2=O)cc1` [Example 80, 3-(4-(dimethylamino)phenyl)-2-(1H-indol-5-yl)quinazolin-4(3H)-one], the “Effect on ApoA-I mRNA levels” value is “Active”.

On to `O=c1c2ccccc2nc(-c2cnc3c(ccn3S(=O)(=O)c3ccccc3)c2)n1-c1ccc(Cl)cc1` [Example 81, 3-(4-chlorophenyl)-2-(1-(phenylsulfonyl)-1H-pyrrolo[2,3-b]pyridin-5-yl)quinazolin-4(3H)-one], for which the “Effect on ApoA-I mRNA levels” value was “Active”.

Take `CCC(C)c1ccc(-n2c(-c3ccc4[nH]c(CO)cc4c3)nc3ccccc3c2=O)cc1` (stereo not shown) [Example 82, 3-(4-sec-butylphenyl)-2-(2-(hydroxymethyl)-1H-indol-5-yl)quinazolin-4(3H)-one]: the “Effect on ApoA-I mRNA levels” value is reported as “Active”.

As to `Cn1ccc2cc(-c3nc4ccccc4c(=O)n3-c3ccc(Cl)cc3)ccc21` [Example 83, 3-(4-chlorophenyl)-2-(1-methyl-1H-indol-5-yl)quinazolin-4(3H)-one], the “Effect on ApoA-I mRNA levels” value is reported as “Active”.

Turning to `O=c1c2ccccc2nc(-c2ccc3[nH]ccc3c2)n1-c1ccc(C2CCCC2)cc1` [Example 84, 3-(4-cyclopentylphenyl)-2-(1H-indol-5-yl)quinazolin-4(3H)-one], the “Effect on ApoA-I mRNA levels” value is on record as “Active”.

(Values after patent US8952021B2, “Compounds for the prevention and treatment of cardiovascular disease” (Resverlogix Corp., priority 2009, dated 2015).)
